This passage reports Solubility results from US6770728B2, “Process for preparing ocular lens with urethane compound and process for preparing urethane compound for medical instruments” (Menicon Co., Ltd., priority 1999, dated 2004).

A short description of this data set: Solubility of catalysts in various solvents (maximum amount completely soluble). Format: physicochemical. The protocol: Solubility of a various kind of catalysts in a various kind of solvents (water, methanol, acetone, acetonitrile, n-hexane, methylene chloride) was evaluated by studying maximum amount of catalysts completely soluble in a various kind of solvents.

For orientation: Solubility means how much of the substance goes into solution per volume. Low values mean a poorly soluble substance, high ones a readily soluble substance. With Zinc acetylacetonate [ZnAA], the Solubility (solvent: acetone) was found to be 1000 µg/mL; the Solubility result (solvent: acetonitrile) is on record as “insoluble”; the Solubility (solvent: methanol) came out at 50000 µg/mL; the Solubility (solvent: methylene chloride) is 10000 µg/mL; the Solubility result (solvent: n-hexane) is listed as “insoluble”; the Solubility entry (solvent: water) is on record as “insoluble”.
